Here are results for seven compounds from ChEMBL document CHEMBL1201862, “PubChem BioAssay data set” (2004).

The target in experiment [1] is T1, Tyrosine-protein phosphatase non-receptor type 22 (Homo sapiens, UniProt Q9Y2R2).
T1 sequence (Q9Y2R2 whole entry): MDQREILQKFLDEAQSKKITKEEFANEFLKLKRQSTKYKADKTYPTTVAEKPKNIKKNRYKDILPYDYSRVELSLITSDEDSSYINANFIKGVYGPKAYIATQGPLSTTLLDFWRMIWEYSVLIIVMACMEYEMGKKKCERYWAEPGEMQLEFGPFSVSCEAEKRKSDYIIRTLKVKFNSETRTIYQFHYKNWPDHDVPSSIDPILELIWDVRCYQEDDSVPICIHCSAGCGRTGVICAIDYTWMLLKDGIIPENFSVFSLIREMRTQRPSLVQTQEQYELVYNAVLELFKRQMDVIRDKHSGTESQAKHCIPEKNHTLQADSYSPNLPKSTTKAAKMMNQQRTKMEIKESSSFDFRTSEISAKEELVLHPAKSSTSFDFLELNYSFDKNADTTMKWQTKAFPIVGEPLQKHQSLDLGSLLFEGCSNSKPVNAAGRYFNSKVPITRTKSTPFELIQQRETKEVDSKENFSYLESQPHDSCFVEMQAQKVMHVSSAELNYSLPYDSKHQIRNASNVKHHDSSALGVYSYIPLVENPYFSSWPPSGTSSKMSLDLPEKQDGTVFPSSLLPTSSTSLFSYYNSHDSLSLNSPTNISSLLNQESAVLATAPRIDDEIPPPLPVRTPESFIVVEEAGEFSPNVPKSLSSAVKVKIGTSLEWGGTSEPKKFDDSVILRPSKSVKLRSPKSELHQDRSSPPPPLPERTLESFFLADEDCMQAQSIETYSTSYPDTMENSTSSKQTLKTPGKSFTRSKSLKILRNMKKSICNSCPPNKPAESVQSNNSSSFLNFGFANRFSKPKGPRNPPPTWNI
In words: SAR LYP1 Fluorescent Assay using pCAP substrate for In Vitro dose response studies - Set 2. [Related pubchem assays (depositor defined):AID1779, AID1784, AID2135, AID449727]. In kind it is functional.

Experiment [2] has as its target Tyrosine-protein phosphatase non-receptor type 12 (Homo sapiens, UniProt Q05209). As to the kind of experiment: SAR Selectivity Analysis of small molecule inhibitors of PEST using pCAP in a fluorescence assay. [Related pubchem assays (depositor defined):AID1779, AID1784, AID2135]. It counts as functional.
The target of experiment [3] is T2, Tyrosine-protein phosphatase non-receptor type 7 (Homo sapiens, UniProt P35236).
T2 sequence (P35236 whole entry): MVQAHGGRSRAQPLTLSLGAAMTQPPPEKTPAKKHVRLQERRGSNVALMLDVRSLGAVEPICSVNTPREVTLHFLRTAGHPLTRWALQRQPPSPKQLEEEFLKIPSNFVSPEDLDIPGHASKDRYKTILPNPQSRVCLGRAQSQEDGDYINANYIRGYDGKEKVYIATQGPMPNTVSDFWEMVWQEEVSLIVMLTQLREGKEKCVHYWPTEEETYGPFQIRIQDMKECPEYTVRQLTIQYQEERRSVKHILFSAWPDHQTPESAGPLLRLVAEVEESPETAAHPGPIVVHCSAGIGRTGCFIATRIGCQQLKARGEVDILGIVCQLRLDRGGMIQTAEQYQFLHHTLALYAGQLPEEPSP
In words: HePTP (PTPN7) phosphatase inhibitor potency, SAR follow-up, biochemical, set 2 (AID 449736). In kind it is functional.

In experiment [4] the target is T1, Tyrosine-protein phosphatase non-receptor type 22. In words: SAR LYP1 Fluorescent Assay using OMFP substrate for In Vitro dose response studies - Set 2. [Related pubchem assays (depositor defined):AID1779, AID1784, AID2140, AID449726, AID488869]. It counts as functional.
Experiment [5] has the same target. In words: LYP (PTPN22) phosphatase inhibitor potency, SAR follow-up, biochemical, pCAP fluorogenic substrate, fluorescence, set 3 (AID 449727). In kind it is functional.
Experiment [6] addresses T3, Carboxy-terminal domain RNA polymerase II polypeptide A small phosphatase 1 (Homo sapiens, UniProt Q9GZU7).
T3 sequence (Q9GZU7 whole entry): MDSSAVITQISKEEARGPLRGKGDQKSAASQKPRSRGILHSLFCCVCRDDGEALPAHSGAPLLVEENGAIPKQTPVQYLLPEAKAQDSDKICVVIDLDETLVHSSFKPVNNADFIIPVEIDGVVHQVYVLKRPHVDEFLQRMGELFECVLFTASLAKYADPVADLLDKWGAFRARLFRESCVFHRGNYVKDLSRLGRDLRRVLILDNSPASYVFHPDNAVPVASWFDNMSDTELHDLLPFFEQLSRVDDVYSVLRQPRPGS
In words: inhibitors of CTDSP1, concentration-response testing, biochemical assay, absorbance-based, actives from ultra-high-throughput screening (AID 540297). In kind it is functional.

For experiment [7], the target named is T1, Tyrosine-protein phosphatase non-receptor type 22. As to the kind of experiment: SAR LYP1 Fluorescent Assay using OMFP substrate for In Vitro dose response studies - Set 3. [Related pubchem assays (depositor defined):AID1779, AID1784, AID2140, AID2686]. In kind it is functional.
Experiment [8] concerns J774.A1. As to the kind of experiment: Confirmation of image-based Screening Assay for Inhibitors of Phagocytosis. [Related pubchem assays (depositor defined):AID1029, AID1643]. In kind it is functional, cell-based. The conditions noted are these: Mus musculus.
A short description of experiment [9]: inhibition of K1F phage lysis, E. coli UTI89, bacterial capsule biogenesis inhibitors, alamar blue (AID 488966). It counts as functional. In general terms: Alamar Blue is a resazurin reagent that responds to reducing activity.
Experiment [10] relates to H4. As to the kind of experiment: Luminescence Cell-Based Dose Response HTS to Identify Activators of 5'UTR Stem-Loop Driven Prion Protein mRNA Translation in H4 Neuroglioblastoma Cells. [Related pubchem assays: 1829 (Project Summary), 1814 (Primary HTS)]. It counts as functional. The following applies: Homo sapiens.
A short description of experiment [11]: Luminescence Cell-Based Dose Retest to Confirm Activators of 5'UTR Stem-Loop Driven Alpha-Synuclein mRNA Translation in H4 Neuroglioblastoma Cells. [Related pubchem assays (depositor defined):AID1813, AID1829]. In kind it is functional.
Experiment [12] is described as follows: Luminescence Cell-Based Dose Response HTS to Identify Activators of Luciferase Translation or Activity in H4 […] Cells. [Related pubchem assays: 1829 (Project Summary), 1814 (Primary HTS)]. In kind it is functional.
The nature of experiment [13]: Luminescence Cell-Based Dose Response HTS to Identify Activators of 5'UTR Stem-Loop Driven Prion Protein mRNA Translation in H4-C Neuroglioblastoma Cells. [Related pubchem assays: 1829 (Project Summary), 1814 (Primary HTS)]. It counts as functional.
Experiment [14] is described as follows: Luminescence Cell-Based Dose Confirmation to Identify Activators of 5'UTR Stem-Loop Driven Alpha-Synuclein mRNA Translation in H4 Neuroglioblastoma Cells. [Related pubchem assays: 1829 (Project Summary), 1814 (Primary HTS)]. In kind it is functional.
The nature of experiment [15]: Luminescence Cell-Based Dose Response HTS to Identify Activators of Luciferase Translation or Activity in H4-C Neuroglioblastoma Cells. [Related pubchem assays: 1829 (Project Summary), 1814 (Primary HTS)]. In kind it is functional.
A short description of experiment [16]: Luminescence Cell-Based Dose Response to Identify Activators of 5'UTR Stem-Loop Driven Prion Protein mRNA Translation in H4-C Neuroglioblastoma Cells. [Related pubchem assays: 1829 (Project Summary), 1814 (Primary HTS)]. It counts as functional.
The nature of experiment [17]: Luminescence Cell-Based Dose Confirmation HTS to Identify Activators of 5'UTR Stem-Loop Driven Alpha-Synuclein mRNA Translation in H4 Neuroglioblastoma Cells. [Related pubchem assays: 1829 (Project Summary), 1814 (Primary HTS)]. In kind it is functional.
Experiment [18] is described as follows: Luminescence Cell-Based Dose Response to Identify Activators of Luciferase Translation or Activity in H4-C Neuroglioblastoma Cells. [Related pubchem assays: 1829 (Project Summary), 1814 (Primary HTS)]. In kind it is functional.
The target of experiment [19] is Eukaryotic translation initiation factor 4H (Homo sapiens, UniProt Q15056). As to the kind of experiment: eIF4H inhibition in translation initiation, SAR follow-up (AID 435011). In kind it is functional.
The target in experiment [20] is Polyadenylate-binding protein 1 (Homo sapiens, UniProt P11940). In words: PABP inhibition in translation initiation, SAR follow-up (AID 435018). In kind it is functional.
Sequence of Polyadenylate-binding protein 1 (P11940 whole entry): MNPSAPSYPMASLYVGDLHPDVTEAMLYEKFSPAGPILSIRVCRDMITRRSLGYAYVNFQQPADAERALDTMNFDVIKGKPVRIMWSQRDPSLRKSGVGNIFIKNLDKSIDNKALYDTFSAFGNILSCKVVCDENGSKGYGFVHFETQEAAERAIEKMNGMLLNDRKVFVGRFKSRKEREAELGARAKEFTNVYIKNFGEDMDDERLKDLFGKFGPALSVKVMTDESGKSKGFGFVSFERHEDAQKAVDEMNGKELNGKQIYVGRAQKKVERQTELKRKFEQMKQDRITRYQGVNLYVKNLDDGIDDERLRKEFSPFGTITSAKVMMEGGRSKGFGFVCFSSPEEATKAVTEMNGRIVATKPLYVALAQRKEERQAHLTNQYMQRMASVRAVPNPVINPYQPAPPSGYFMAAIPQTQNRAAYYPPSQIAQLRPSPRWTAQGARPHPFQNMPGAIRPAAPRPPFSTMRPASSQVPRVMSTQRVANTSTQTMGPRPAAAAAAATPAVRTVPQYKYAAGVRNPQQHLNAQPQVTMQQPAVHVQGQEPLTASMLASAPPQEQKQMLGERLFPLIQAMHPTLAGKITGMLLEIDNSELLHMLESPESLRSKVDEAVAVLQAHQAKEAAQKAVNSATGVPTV
In experiment [21] the target is T4, Bcl-2-related protein A1 (Mus musculus, UniProt Q07440).
T4 sequence (Q07440 whole entry): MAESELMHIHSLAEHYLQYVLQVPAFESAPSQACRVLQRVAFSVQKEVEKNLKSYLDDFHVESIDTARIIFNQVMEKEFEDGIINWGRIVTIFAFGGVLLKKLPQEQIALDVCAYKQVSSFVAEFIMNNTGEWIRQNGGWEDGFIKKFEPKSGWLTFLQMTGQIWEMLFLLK
In words: Bfl-1 inhibitors, primary screen, biochemical, fluorescence polarization, FITC-Bid, mouse (AID 432). For orientation: Fluorescence polarisation rises when a labelled molecule tumbles more slowly, as on binding a larger partner.

Experiment [22] is described as follows: A cytotoxicity screen of small molecule inhibitors of the PhoP region in Salmonella typhi identified in the primary screen. [Related pubchem assays: 1850, 1864, 1985 ]. It counts as functional.
In experiment [23] the target is T4, Bcl-2-related protein A1. As to the kind of experiment: Bfl-1 inhibitors blocking BH3 peptide binding, confirmation, biochemical, TR-FRET, mouse Bfl-1 (AID 621).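 Note: TR-FRET binding of GST-Bfl-1 to FITC-labelled Bid peptide via terbium antibody.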
Experiment [24] concerns the target NACHT, LRR and PYD domains-containing protein 3 (Homo sapiens, UniProt Q96P20). As to the kind of experiment: NALP3 inhibitors in yeast, dose response, luminescent (AID 488799). It counts as functional.
Experiment [25] concerns the target Alkaline phosphatase, placental type (Homo sapiens, UniProt P05187). As to the kind of experiment: PLAP enzyme inhibitors, confirmation, biochemical, luminescence (AID 1512). In kind it is functional.
The target of experiment [26] is T5, Mannose-6-phosphate isomerase (Homo sapiens, UniProt P34949).
T5 sequence (P34949 whole entry): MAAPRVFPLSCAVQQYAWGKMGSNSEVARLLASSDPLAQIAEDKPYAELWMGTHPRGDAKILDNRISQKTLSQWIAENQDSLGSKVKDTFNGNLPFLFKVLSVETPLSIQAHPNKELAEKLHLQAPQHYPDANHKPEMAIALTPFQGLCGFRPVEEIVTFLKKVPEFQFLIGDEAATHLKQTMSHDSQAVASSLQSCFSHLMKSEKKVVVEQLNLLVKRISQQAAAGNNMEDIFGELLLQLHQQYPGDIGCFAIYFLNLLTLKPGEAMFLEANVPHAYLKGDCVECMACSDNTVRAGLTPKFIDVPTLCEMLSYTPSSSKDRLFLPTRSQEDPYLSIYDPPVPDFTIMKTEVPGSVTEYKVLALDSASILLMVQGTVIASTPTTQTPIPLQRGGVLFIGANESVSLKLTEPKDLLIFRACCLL
As to the kind of experiment: PMI enzyme inhibitors, confirmation, biochemical, fluorescence intensity (AID 1535).

Experiment [27] deals with T5, Mannose-6-phosphate isomerase. As to the kind of experiment: Confirmation of compounds inhibiting phosphomannose isomerase (PMI) via a fluorescence intensity assay using a high concentration of mannose 6-phosphate. [Related pubchem assays (depositor defined):AID1209, AID1220, AID1545, AID1553, AID1620].

The source made the active and inactive calls.

Sequence of Alkaline phosphatase, placental type (P05187 whole entry): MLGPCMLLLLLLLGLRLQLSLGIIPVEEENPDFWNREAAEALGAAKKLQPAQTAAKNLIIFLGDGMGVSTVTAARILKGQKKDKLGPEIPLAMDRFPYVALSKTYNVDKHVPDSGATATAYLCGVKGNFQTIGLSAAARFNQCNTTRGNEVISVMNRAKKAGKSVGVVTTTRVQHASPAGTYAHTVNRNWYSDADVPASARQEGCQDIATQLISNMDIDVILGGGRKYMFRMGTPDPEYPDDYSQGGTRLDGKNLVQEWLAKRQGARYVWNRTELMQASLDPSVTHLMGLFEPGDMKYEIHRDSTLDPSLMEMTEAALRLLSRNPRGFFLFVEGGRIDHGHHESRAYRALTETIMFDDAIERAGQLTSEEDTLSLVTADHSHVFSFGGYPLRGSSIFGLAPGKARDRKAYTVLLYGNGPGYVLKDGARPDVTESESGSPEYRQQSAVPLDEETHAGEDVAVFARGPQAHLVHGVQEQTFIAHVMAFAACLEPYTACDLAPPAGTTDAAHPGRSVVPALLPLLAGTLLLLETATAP
Sequence of NACHT, LRR and PYD domains-containing protein 3 (Q96P20 whole entry, the tested form may be a part): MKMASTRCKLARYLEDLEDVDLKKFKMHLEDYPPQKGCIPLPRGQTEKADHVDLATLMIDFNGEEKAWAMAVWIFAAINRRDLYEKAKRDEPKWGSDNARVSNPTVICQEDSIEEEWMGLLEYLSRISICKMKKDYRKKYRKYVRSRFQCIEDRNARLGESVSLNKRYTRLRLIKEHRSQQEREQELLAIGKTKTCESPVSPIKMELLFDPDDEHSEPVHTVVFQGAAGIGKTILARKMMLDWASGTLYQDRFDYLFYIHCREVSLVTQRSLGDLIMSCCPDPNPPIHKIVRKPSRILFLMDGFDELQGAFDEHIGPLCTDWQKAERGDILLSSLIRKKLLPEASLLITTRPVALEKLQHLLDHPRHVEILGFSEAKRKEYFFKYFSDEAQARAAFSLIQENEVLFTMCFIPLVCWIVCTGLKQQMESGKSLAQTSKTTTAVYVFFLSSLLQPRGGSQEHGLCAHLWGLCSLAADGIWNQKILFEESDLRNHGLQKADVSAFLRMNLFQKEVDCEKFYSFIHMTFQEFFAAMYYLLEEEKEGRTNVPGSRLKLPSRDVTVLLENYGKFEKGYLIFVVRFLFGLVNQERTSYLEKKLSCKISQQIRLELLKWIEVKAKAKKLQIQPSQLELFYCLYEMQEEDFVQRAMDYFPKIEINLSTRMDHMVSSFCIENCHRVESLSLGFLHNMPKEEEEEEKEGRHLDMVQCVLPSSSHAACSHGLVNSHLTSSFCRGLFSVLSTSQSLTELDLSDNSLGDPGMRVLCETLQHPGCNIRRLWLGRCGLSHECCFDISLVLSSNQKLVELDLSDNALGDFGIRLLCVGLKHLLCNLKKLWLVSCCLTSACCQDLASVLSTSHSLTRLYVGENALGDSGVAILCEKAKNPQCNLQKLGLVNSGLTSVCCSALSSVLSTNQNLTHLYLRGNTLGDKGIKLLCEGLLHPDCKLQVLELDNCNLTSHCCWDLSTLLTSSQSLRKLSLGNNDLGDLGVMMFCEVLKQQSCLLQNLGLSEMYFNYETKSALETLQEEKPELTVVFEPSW
Sequence of Tyrosine-protein phosphatase non-receptor type 12 (Q05209 whole entry): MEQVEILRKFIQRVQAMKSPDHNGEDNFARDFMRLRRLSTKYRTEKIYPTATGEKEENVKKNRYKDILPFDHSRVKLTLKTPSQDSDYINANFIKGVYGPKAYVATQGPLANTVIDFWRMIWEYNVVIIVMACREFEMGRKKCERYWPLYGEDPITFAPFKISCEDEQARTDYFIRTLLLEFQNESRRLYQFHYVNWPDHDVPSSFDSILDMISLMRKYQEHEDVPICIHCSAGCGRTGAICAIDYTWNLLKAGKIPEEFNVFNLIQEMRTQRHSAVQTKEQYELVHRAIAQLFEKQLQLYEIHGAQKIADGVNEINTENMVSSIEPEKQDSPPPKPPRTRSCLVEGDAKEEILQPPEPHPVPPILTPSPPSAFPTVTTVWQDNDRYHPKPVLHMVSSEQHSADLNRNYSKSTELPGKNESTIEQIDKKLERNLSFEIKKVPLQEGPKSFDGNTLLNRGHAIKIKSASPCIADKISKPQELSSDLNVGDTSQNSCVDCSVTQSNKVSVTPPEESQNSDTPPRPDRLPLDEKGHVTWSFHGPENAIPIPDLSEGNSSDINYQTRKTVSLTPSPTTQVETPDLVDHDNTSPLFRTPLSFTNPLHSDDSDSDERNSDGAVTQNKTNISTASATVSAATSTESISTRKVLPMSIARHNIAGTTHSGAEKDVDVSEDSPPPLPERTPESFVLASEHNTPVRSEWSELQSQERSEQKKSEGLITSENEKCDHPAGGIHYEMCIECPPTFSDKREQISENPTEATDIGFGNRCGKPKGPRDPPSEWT

As to `N#C/C(=C\c1ccc(OCc2ccc(Br)cc2)cc1)C(=O)Nc1cccc(C(=O)O)c1`, the IC50 in experiment [1] is 3.5 µM (active); in experiment [2] it was 0.714 µM (active); in [3], 0.343 µM (active); in [4] it was 1.94 µM (active); in experiment [5], 3.37 µM (active); in [6] it was 1.83 µM (active). Besides, the IC50 in experiment [7] is 0.925 µM (active).
As to `COc1ccccc1-c1nnc2sc(-c3cc4ccccc4o3)nn12`, the IC50 in experiment [8] is > 25 µM (inactive).
On to `Cc1cc(NCCN)nc2ccccc12`, for which, in experiment [9], the IC50 is > 300 µM (active).
Regarding `C=CCc1ccc(OCCn2nnc3ccccc32)c(OC)c1`, the EC50 in experiment [10] is 8.33 µM (active); in experiment [11], > 195 µM (inactive); in experiment [12], 4.24 µM (active); in experiment [13], > 195 µM (not active); in [14], > 12 µM (not active); in experiment [15], 0.772 µM (active). Besides, the EC50 in experiment [16] is 1.49 µM (active); in experiment [17], < 0.1 µM (active); in experiment [18], 3.71 µM (active).
For `COc1cc(NC(=O)CSc2ccc(-c3ccco3)nn2)cc(OC)c1`, the values for the half-maximal inhibitory concentration (IC50) in experiment [19] and in [20] were 62.7 µM (active) and > 100 µM (inactive), respectively.
In the case of `O=C(Nc1cccc(Br)c1)c1cc2ccccc2o1`, the 50% inhibitory concentration (IC50) was > 100 µM (not active) in [21], > 100 µM (not active) in experiment [23] and 9.81 µM (active) in experiment [24]. In addition, in [22], the EC50 is > 50 µM (active).
As for `O=C1N(Cc2ccccc2)c2ccccc2C12NNc1ccccc1O2` (configuration not stated), the IC50 in [25], in [26] and in [27] was > 100 µM (inactive) throughout.

By IC50 is commonly meant the concentration needed to halve the response being measured. The term EC50 denotes the concentration needed to bring the measured effect to its halfway point.
